Assay results reported in patent US11564913B2, “Compositions and methods for treating cancer” (Children's Hospital Medical Center, priority 2019, dated 2023).

Tested on: active RhoA in MDA-MB-231 cells
Assay: Active GTPase pull-down (GST-Rhotekin RBD)
Type: cell-based, human
Conditions: 0-3 μM, 1 h
Experimental: FIG. 5: Cytoskeletal changes induced by IODVA1 treatment. IODVA1 inhibits lamellipodia and circular dorsal ruffle (CDR) formation in MDA-MB-231 cells and decreases Rac activation. (A) IODVA1 inhibits EGF-induced lamellipodia formation in MDA-MB-231 cells. MDA-MB-231 cells were plated on fibronectin-coated coverslips, serum starved for 4 h, incubated with the indicated concentrations of IODVA1 for 1 h, then EGF (50 ng/mL) stimulated, fixed and stained with Phalloidin Alexa Fluor 594 (F-Actin, pseudocolored red) and DAPI (nuclei, pseudocolored blue). […] The percentage of cells with CDRs was counted as the number of cells with CDRs normalized to the total number of cells in the field. Around 150 cells were counted per condition per experiment. Cells with multiple CDRs were counted only once. […] Levels of active Rac (RacGTP, % of control), active Cdc42 (Cdc42GTP, % of control) and active RhoA (RhoAGTP, % of control) were quantified using ImageJ and ImageLab and show combined data as mean±s.e.m. from at least 3 independent experiments. […]
To confirm that IODVA1 interferes with Rac activation, applicants checked the levels of active Rac and its downstream effector PAK1/2. MDA-MB-231 cells were incubated with IODVA1 (0-3 μM) for 1 h and levels of GTP-bound active Rac were measured by GST-PAK-GBD pull-downs and quantified (FIG. 5C). […]

In the case of `OC1(c2ccccn2)N=C(Nc2nc3ccccc3[nH]2)N=C1c1ccccn1` (stereo not shown) [IODVA1, (Z)-2-((1H-benzo[d]imidazol-2-yl)imino)-4,5-di(pyridin-2-yl)-2,5-dihydro-1H-imidazol-5-ol], the “levels of active RhoA” value is reported as “not affected”.
